# Measurements as given in ChEMBL document CHEMBL4428102, “Discovery of an Orally Bioavailable Gonadotropin-Releasing Hormone Receptor Antagonist” (J Med Chem, 2016).
# The source made the active and inactive calls. The rule behind the calls is not given here.
# Key:
# [1] = Selectivity index, ratio of IC50 for antagonist activity against monkey GnRH receptor expressed in HEK293 cells to IC50 for antagonist activity against human GnRH receptor expressed in HEK293 cells; type: cell-based
# [2] = Selectivity index, ratio of IC50 for antagonist activity against rat GnRH receptor expressed in HEK293 cells to IC50 for antagonist activity against human GnRH receptor expressed in HEK293 cells; type: cell-based
# Cynomolgus monkey [3] = experiment: Reduction in serum LH level in castrated male cynomolgus monkey at 30 mg/kg, po administered as single dose after 12 to 24 hrs by RIA method; type: functional, organism-based; conditions: Macaca fascicularis
# [4] = molecular target: T1, Gonadotropin-releasing hormone receptor (Homo sapiens, UniProt P30968); experiment: Displacement of [125I]D-Trp6-LHRH from human GnRH receptor expressed in CHO-K1 cell membranes incubated for 1 hr by competitive binding assay
# T1 sequence (P30968 whole entry): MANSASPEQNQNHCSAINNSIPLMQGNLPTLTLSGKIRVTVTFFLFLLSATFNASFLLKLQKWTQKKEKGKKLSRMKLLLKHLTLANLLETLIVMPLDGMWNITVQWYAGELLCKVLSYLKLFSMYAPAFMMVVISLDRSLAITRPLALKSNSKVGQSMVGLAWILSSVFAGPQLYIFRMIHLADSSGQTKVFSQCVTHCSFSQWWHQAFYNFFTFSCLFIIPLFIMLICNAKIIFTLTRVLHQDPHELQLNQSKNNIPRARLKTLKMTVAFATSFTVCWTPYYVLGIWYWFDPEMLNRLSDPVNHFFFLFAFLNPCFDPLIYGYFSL
# [5] = molecular target: T1, Gonadotropin-releasing hormone receptor; experiment: Antagonist activity against human GnRH receptor expressed in HEK293 cells co-transfected with pGL4-NFAT promoter AP1-luc assessed as inhibition of 20 nM GnRH-induced NFAT activation pre-incubated for 1 hr before GnRH stimulation and measured after 6 hrs by luciferase reporter gene assay; type: cell-based
# CYP3A4 = CYP3A4 (Homo sapiens, UniProt P08684); experiment: Inhibition of human recombinant CYP3A4 expressed in baculosomes at 10 uM incubated for 30 mins using BOMR substrate by fluorescence based assay; type: ADME; conditions: probe BOMR
# [6] = Cmax in Sprague-Dawley rat at 10 mg/kg, po by mass spectrometry; type: ADME, organism-based; design: dose 10 mg/kg, route oral; conditions: in vivo
# [7] = Cmax in beagle dog at 10 mg/kg, po by mass spectrometry; type: ADME, organism-based, Canis lupus familiaris; design: dose 10 mg/kg, route oral; conditions: in vivo
# [8] = Cmax in castrated cynomolgus monkey at 10 mg/kg, po by mass spectrometry; type: ADME, organism-based, Macaca fascicularis; design: dose 10 mg/kg, route oral; conditions: male, in vivo
# [9] = Tmax in Sprague-Dawley rat at 10 mg/kg, po by mass spectrometry; type: ADME, organism-based; conditions: in vivo
# [10] = Tmax in beagle dog at 10 mg/kg, po by mass spectrometry; type: ADME, organism-based, Canis lupus familiaris; conditions: in vivo
# [11] = Tmax in castrated cynomolgus monkey at 10 mg/kg, po by mass spectrometry; type: ADME, organism-based, Macaca fascicularis; conditions: male, in vivo
# [12] = Half life in Sprague-Dawley rat at 10 mg/kg, po by mass spectrometry; type: ADME, organism-based; conditions: in vivo
# [13] = Half life in beagle dog at 10 mg/kg, po by mass spectrometry; type: ADME, organism-based, Canis lupus familiaris; conditions: in vivo
# [14] = Half life in castrated cynomolgus monkey at 10 mg/kg, po by mass spectrometry; type: ADME, organism-based, Macaca fascicularis; conditions: male, in vivo
# [15] = AUC (infinity) in Sprague-Dawley rat at 10 mg/kg, po by mass spectrometry; type: ADME, organism-based; design: dose 10 mg/kg, route oral, time infinity; conditions: in vivo
# [16] = AUC (infinity) in beagle dog at 10 mg/kg, po by mass spectrometry; type: ADME, organism-based, Canis lupus familiaris; design: dose 10 mg/kg, time infinity, route oral; conditions: in vivo
# [17] = AUC (infinity) in castrated cynomolgus monkey at 10 mg/kg, po by mass spectrometry; type: ADME, organism-based, Macaca fascicularis; design: dose 10 mg/kg, route oral, time infinity; conditions: male, in vivo
# [18] = Oral bioavailability in Sprague-Dawley rat at 10 mg/kg by mass spectrometry; type: ADME, organism-based; conditions: in vivo
# [19] = Oral bioavailability in beagle dog at 10 mg/kg by mass spectrometry; type: ADME, organism-based, Canis lupus familiaris; conditions: in vivo
# [20] = Oral bioavailability in castrated cynomolgus monkey at 10 mg/kg by mass spectrometry; type: ADME, organism-based, Macaca fascicularis; conditions: male, in vivo
# Cynomolgus monkey [21] = experiment: Reduction in serum LH level in castrated male cynomolgus monkey at 30 mg/kg, po administered as single dose after 12 hrs by RIA method; type: functional; conditions: Macaca fascicularis
# [22] = AUC in castrated male cynomolgus monkey at 30 mg/kg, po administered as single dose; type: ADME, organism-based, Macaca fascicularis; conditions: in vivo
# [23] = Cmax in castrated male cynomolgus monkey at 30 mg/kg, po administered as single dose; type: ADME, organism-based, Macaca fascicularis; design: dose 30 mg/kg, route oral; conditions: in vivo
# Cynomolgus monkey [24] = experiment: Reduction in serum LH level in castrated male cynomolgus monkey at 30 mg/kg, po administered as single dose after 24 hrs by RIA method; type: functional; conditions: Macaca fascicularis
# [25] = molecular target: T2, Gonadotropin-releasing hormone receptor (Macaca mulatta, UniProt Q8SPZ1); experiment: Displacement of [125I]D-Trp6-LHRH from monkey GnRH receptor expressed in HEK293 cell membranes incubated for 1 hr by competitive binding assay
# T2 sequence (Q8SPZ1 whole entry): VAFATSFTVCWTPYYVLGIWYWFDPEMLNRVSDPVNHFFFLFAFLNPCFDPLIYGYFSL
# [26] = molecular target: T3, Gonadotropin-releasing hormone receptor (Rattus norvegicus, UniProt P30969); experiment: Displacement of [125I]D-Trp6-LHRH from rat GnRH receptor expressed in HEK293 cell membranes incubated for 1 hr by competitive binding assay
# T3 sequence (P30969 whole entry): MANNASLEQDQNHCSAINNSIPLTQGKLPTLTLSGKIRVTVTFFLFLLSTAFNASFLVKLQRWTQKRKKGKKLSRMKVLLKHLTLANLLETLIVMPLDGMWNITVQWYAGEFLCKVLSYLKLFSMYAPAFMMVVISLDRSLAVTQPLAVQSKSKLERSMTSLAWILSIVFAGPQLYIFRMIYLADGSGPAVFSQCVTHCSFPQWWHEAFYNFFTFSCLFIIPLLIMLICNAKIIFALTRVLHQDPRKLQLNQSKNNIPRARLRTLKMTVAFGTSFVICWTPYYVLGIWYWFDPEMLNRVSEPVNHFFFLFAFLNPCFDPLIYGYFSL
# [27] = molecular target: T1, Gonadotropin-releasing hormone receptor; experiment: Antagonist activity against human GnRH receptor expressed in HEK293 cells co-transfected with pGL4-NFAT promoter AP1-luc assessed as inhibition of 1 nM GnRH-induced NFAT activation pre-incubated for 1 hr before GnRH stimulation and measured after 6 hrs by luciferase reporter gene assay; type: cell-based
# [28] = molecular target: T2, Gonadotropin-releasing hormone receptor; experiment: Antagonist activity against monkey GnRH receptor expressed in HEK293 cells co-transfected with pGL4-NFAT promoter AP1-luc assessed as inhibition of 10 nM GnRH-induced NFAT activation pre-incubated for 1 hr before GnRH stimulation and measured after 6 hrs by luciferase reporter gene assay; type: cell-based
# [29] = molecular target: T3, Gonadotropin-releasing hormone receptor; experiment: Antagonist activity against rat GnRH receptor expressed in HEK293 cells co-transfected with pGL4-NFAT promoter AP1-luc assessed as inhibition of 1 nM GnRH-induced NFAT activation pre-incubated for 1 hr before GnRH stimulation and measured after 6 hrs by luciferase reporter gene assay; type: cell-based
# [30] = molecular target: T1, Gonadotropin-releasing hormone receptor; experiment: Antagonist activity against human GnRH receptor expressed in HEK293 cells assessed as reduction in ERK1/2 phosphorylation pre-incubated for 5 mins before LHRH stimulation for 5 mins by chemiluminescence based assay; type: cell-based
# [31] = molecular target: T1, Gonadotropin-releasing hormone receptor; experiment: Antagonist activity against human GnRH receptor expressed in […] assessed as inhibition of LHRH-induced calcium flux by FLIPR assay; type: functional, cell-based
# CYP3A4, sequence (P08684 whole entry): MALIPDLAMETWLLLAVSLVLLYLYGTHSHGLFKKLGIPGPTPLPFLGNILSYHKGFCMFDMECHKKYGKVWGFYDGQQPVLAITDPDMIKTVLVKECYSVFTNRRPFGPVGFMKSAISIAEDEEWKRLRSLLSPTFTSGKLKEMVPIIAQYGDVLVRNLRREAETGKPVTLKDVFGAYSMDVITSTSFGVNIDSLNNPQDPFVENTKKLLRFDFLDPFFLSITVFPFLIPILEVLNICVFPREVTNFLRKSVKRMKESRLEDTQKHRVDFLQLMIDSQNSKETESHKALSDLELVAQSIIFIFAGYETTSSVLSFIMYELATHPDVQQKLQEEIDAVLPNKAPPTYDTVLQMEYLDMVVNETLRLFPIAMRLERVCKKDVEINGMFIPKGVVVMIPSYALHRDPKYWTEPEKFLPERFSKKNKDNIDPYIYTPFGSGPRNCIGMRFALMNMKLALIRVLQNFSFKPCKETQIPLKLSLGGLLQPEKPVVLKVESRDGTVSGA
compound,measurement,setting,value
Cc1c(N2CCN(Cc3ccc(C(F)(F)F)o3)CC2)c(=O)n(C[C@H](NCCCC(=O)O)c2ccccc2)c(=O)n1Cc1c(F)cccc1C(F)(F)F [listing 1 of 2 here],Ratio IC50,[1],2
same,Ratio IC50,[2],44
same,inhibition,Cynomolgus monkey [3],Active
Cc1c(N2CCN(Cc3ccc(C(F)(F)F)o3)CC2)c(=O)n(C[C@H](NCCCS(=O)(=O)O)c2ccccc2)c(=O)n1Cc1c(F)cccc1C(F)(F)F,IC50,[4],1.1 nM
same,IC50,[5],122 nM
same,"inhibition at 0.5 h, 10 µM",CYP3A4,45%
CCOP(=O)(O)CCCN[C@@H](Cn1c(=O)c(N2CCN(Cc3ccc(C(F)(F)F)o3)CC2)c(C)n(Cc2c(F)cccc2C(F)(F)F)c1=O)c1ccccc1,IC50,[4],1.8 nM
same,IC50,[5],184 nM
same,"inhibition at 0.5 h, 10 µM",CYP3A4,45%
Cc1c(N2CCN(Cc3cccc(C(=O)NCCC(=O)O)c3)CC2)c(=O)n(C[C@H](N)c2ccccc2)c(=O)n1Cc1c(F)cccc1C(F)(F)F,IC50,[4],1.2 nM
same,IC50,[5],146 nM
same,"inhibition at 0.5 h, 10 µM",CYP3A4,72%
Cc1c(N2CCN(Cc3cccc(C(N)=O)c3)CC2)c(=O)n(C[C@H](N)c2ccccc2)c(=O)n1Cc1c(F)cccc1C(F)(F)F,IC50,[4],1.95 nM
same,IC50,[5],86.5 nM
same,"inhibition at 0.5 h, 10 µM",CYP3A4,93%
Cc1c(N2CCN(Cc3cccc(C(=O)NCC(=O)O)c3)CC2)c(=O)n(C[C@H](N)c2ccccc2)c(=O)n1Cc1c(F)cccc1C(F)(F)F,IC50,[4],> 10 nM
same,IC50,[5],> 300 nM
same,"inhibition at 0.5 h, 10 µM",CYP3A4,74%
Cc1c(N2CCN(Cc3ccc(C(F)(F)F)o3)CC2)c(=O)n(C[C@H](NCCCC(=O)O)c2ccccc2)c(=O)n1Cc1c(F)cccc1C(F)(F)F.Cl,Cmax,[6],500 ng/mL
same,Cmax,[7],2700 ng/mL
same,Cmax,[8],300 ng/mL
same,Tmax,[9],1.6 h
same,Tmax,[10],1.3 h
same,Tmax,[11],1.7 h
same,half-life,[12],1.9 h
same,half-life,[13],1.7 h
same,half-life,[14],3.5 h
same,AUC(0-inf),[15],1500 ng·h/mL
same,AUC(0-inf),[16],9600 ng·h/mL
same,AUC(0-inf),[17],1300 ng·h/mL
same,bioavailability,[18],15.6%
same,bioavailability,[19],52.6%
same,bioavailability,[20],13.2%
same,inhibition in vivo at 30 mg/kg,Cynomolgus monkey [21],84%
same,AUC,[22],37000 ng·h/mL
same,Cmax,[23],5500 ng/mL
same,inhibition in vivo at 30 mg/kg,Cynomolgus monkey [24],76%
Cc1c(N2CCN(Cc3cccc([N+](=O)[O-])c3)CC2)c(=O)n(C[C@H](NCCCC(=O)O)c2ccccc2)c(=O)n1Cc1c(F)cccc1C(F)(F)F,IC50,[4],1.42 nM
same,IC50,[5],60 nM
same,"inhibition at 0.5 h, 10 µM",CYP3A4,17%
Cc1c(N2CCN(Cc3ccc(C(F)(F)F)o3)CC2)c(=O)n(C[C@H](NCCCC(=O)O)c2ccccc2)c(=O)n1Cc1c(F)cccc1C(F)(F)F [listing 2 of 2 here],IC50,[4],0.44 to 0.46 nM
same,IC50,[5],13 nM
same,"inhibition at 0.5 h, 10 µM",CYP3A4,21%
same,IC50,[25],3.7 nM
same,IC50,[26],520 nM
same,IC50,[27],6.32 nM
same,IC50,[28],13.2 nM
same,IC50,[29],279 nM
same,IC50,[30],2.9 nM
same,IC50,[31],0.76 nM
Cc1c(N2CCN(Cc3ccc(C(F)(F)F)o3)CC2)c(=O)n(C[C@H](N)c2ccccc2)c(=O)n1Cc1c(F)cccc1C(F)(F)F,IC50,[4],0.95 nM
same,IC50,[5],12.6 nM
same,"inhibition at 0.5 h, 10 µM",CYP3A4,96%
Cc1c(N2CCN(Cc3cccc(C(F)(F)F)c3)CC2)c(=O)n(C[C@H](NCCCC(=O)O)c2ccccc2)c(=O)n1Cc1c(F)cccc1C(F)(F)F,IC50,[4],0.68 nM
same,IC50,[5],49.5 nM
same,"inhibition at 0.5 h, 10 µM",CYP3A4,22%
